# Patent US8394788B2, “Phenylsulfoxyoxazole compound inhibitors of urea transporters” (The Regents of the University of California, priority 2006, dated 2013)
# Target: T1, UT-B (Homo sapiens, UniProt Q13336)
# T1 sequence (Q13336 1-389): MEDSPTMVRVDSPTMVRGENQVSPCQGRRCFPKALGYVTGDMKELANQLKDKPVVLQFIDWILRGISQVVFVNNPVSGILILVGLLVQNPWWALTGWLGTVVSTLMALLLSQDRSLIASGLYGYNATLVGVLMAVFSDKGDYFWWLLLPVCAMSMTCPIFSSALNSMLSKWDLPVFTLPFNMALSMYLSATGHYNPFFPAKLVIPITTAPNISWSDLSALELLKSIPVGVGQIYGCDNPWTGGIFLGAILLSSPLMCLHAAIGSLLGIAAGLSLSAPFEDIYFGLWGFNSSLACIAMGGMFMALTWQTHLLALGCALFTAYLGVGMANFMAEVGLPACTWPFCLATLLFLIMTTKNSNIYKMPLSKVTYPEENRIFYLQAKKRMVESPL
# Test: RBC lysis assay (human RBCs, acetamide-loaded)
# Details: not given
row,EC50,SMILES
1,600 nM,"NC(=O)CSc1oc(-c2cccs2)nc1S(=O)(=O)c1ccc(F)cc1 [ureainh-115, 2-(4-(4-fluorophenylsulfonyl)-2-(thiophen-2-yl)oxazol-5-ylthio)acetamide]"
2,1000 nM,"NC(=O)CSc1oc(-c2cccs2)nc1S(=O)(=O)c1ccccc1 [ureainh-116, 2-(4-(phenylsulfonyl)-2-(thiophen-2-yl)oxazol-5-ylthio)acetamide]"
3,100 nM,"NC(=O)CSc1oc(-c2ccco2)nc1S(=O)(=O)c1ccc(Cl)cc1 [ureainh-117, 2-(4-(4-chlorophenylsulfonyl)-2-(furan-2-yl)oxazol-5-ylthio)acetamide]"
4,200 nM,"NC(=O)CSc1oc(-c2ccco2)nc1S(=O)(=O)c1ccc(Br)cc1 [ureainh-118, 2-(4-(4-bromophenylsulfonyl)-2-(furan-2-yl)oxazol-5-ylthio)acetamide]"
5,1000 nM,"Cc1ccc(S(=O)(=O)c2nc(-c3ccco3)oc2SCC(N)=O)cc1 [ureainh-119, 2-(2-(furan-2-yl)-4-tosyloxazol-5-ylthio)acetamide]"
6,1000 nM,"O=S(=O)(c1ccc(Cl)cc1)c1nc(-c2ccccc2F)oc1NCc1ccccc1 [ureainh-120, N-benzyl-4-(4-chlorophenylsulfonyl)-2-(2-fluorophenyl)oxazol-5-amine]"
7,4000 nM,"O=C(CSc1oc(-c2ccccc2)nc1S(=O)(=O)c1ccc(Br)cc1)NCc1ccco1 [ureainh-121, 2-(4-(4-bromophenylsulfonyl)-2-phenyloxazol-5-ylthio)-N-(furan-2-ylmethyl)acetamide]"
8,15000 nM,"O=C(CSc1oc(-c2ccccc2)nc1S(=O)(=O)c1ccc(Cl)cc1)NCc1ccco1 [ureainh-122, 2-(4-(4-chlorophenylsulfonyl)-2-phenyloxazol-5-ylthio)-N-(furan-2-ylmethyl)acetamide]"
9,5000 nM,"CN(C)c1oc(-c2ccccc2Cl)nc1S(=O)(=O)c1ccccc1 [ureainh-123, 2-(2-chlorophenyl)-N,N-dimethyl-4-(phenylsulfonyl)oxazol-5-amine]"
10,7000 nM,"O=S(=O)(c1ccccc1)c1nc(-c2ccccc2F)oc1N1CCOCC1 [ureainh-124, 4-(2-(2-fluorophenyl)-4-(phenylsulfonyl)oxazol-5-yl)morpholine]"
11,11000 nM,"Cc1ccc(S(=O)(=O)c2nc(-c3ccccc3Cl)oc2N2CCOCC2)cc1 [ureainh-125, 4-(2-(2-chlorophenyl)-4-tosyloxazol-5-yl)morpholine]"
12,10000 nM,"COc1ccccc1-c1nc(S(=O)(=O)c2ccccc2)c(N2CCCCCC2)o1 [ureainh-126, 5-(azepan-1-yl)-2-(2-methoxyphenyl)-4-(phenylsulfonyl)oxazole]"
13,10000 nM,"Cc1ccc(-c2nc(S(=O)(=O)c3ccccc3)c(N3CCCCCC3)o2)cc1 [ureainh-127, 5-(azepan-1-yl)-4-(phenylsulfonyl)-2-p-tolyloxazole]"
14,10000 nM,"O=S(=O)(c1ccccc1)c1nc(-c2ccc(F)cc2)oc1N1CCCCCC1 [ureainh-128, 5-(azepan-1-yl)-2-(4-fluorophenyl)-4-(phenylsulfonyl)oxazole]"
15,20000 nM,"CSc1oc(-c2ccco2)nc1S(=O)(=O)c1ccc(Cl)cc1 [ureainh-129, 4-(4-chlorophenylsulfonyl)-2-(furan-2-yl)-5-(methylthio)oxazole]"
16,2000 nM,"CSc1[nH]c(-c2ccc(C)cc2)nc1S(=O)(=O)c1ccccc1 [ureainh-130, 5-(methylthio)-4-(phenylsulfonyl)-2-p-tolyl-1H-imidazole]"
17,6000 nM,"Cc1ccc(S(=O)(=O)c2nc(-c3ccccc3)[nH]c2S)cc1 [ureainh-131, 2-phenyl-4-tosyl-1H-imidazole-5-thiol]"
18,7000 nM,"O=C(Sc1[nH]c(-c2ccccc2)nc1S(=O)(=O)c1ccccc1)c1ccccc1 [ureainh-132, S-2-phenyl-4-(phenylsulfonyl)-1H-imidazol-5-yl benzothioate]"

# Further lines, the compound ahead of its results:
row,SMILES,EC50
1,"NC(=O)CSc1oc(-c2ccccc2)nc1S(=O)(=O)c1ccc(Cl)cc1 [ureainh-102, 2-(4-(4-chlorophenylsulfonyl)-2-phenyloxazol-5-ylthio)acetamide]",40 nM
2,"Cc1ccc(S(=O)(=O)c2nc(-c3ccccc3)oc2SCC(N)=O)cc1 [ureainh-103, 2-(2-phenyl-4-tosyloxazol-5-ylthio)acetamide]",100 nM
3,"NC(=O)CSc1oc(-c2ccccc2)nc1S(=O)(=O)c1ccccc1 [ureainh-104, 2-(2-phenyl-4-(phenylsulfonyl)oxazol-5-ylthio)acetamide]",1000 nM
4,"Cc1ccc(S(=O)(=O)c2nc(-c3ccc(F)cc3)oc2SCC(N)=O)cc1 [ureainh-105, 2-(2-(4-fluorophenyl)-4-tosyloxazol-5-ylthio)acetamide]",100 nM
5,"NC(=O)CSc1oc(-c2ccc(F)cc2)nc1S(=O)(=O)c1ccc(Cl)cc1 [ureainh-106, 2-(4-(4-chlorophenylsulfonyl)-2-(4-fluorophenyl)oxazol-5-ylthio)acetamide]",200 nM
6,"NC(=O)CSc1oc(-c2ccc(F)cc2)nc1S(=O)(=O)c1ccc(F)cc1 [ureainh-107, 2-(2-(4-fluorophenyl)-4-(4-fluorophenylsulfonyl)oxazol-5-ylthio)acetamide]",6000 nM
7,"NC(=O)CSc1oc(-c2ccc(F)cc2)nc1S(=O)(=O)c1ccccc1 [ureainh-108, 2-(2-(4-fluorophenyl)-4-(phenylsulfonyl)oxazol-5-ylthio)acetamide]",15000 nM
8,"Cc1ccc(-c2nc(S(=O)(=O)c3ccc(Br)cc3)c(SCC(N)=O)o2)cc1 [ureainh-109, 2-(4-(4-bromophenylsulfonyl)-2-p-tolyloxazol-5-ylthio)acetamide]",200 nM
9,"Cc1ccc(-c2nc(S(=O)(=O)c3ccc(C)cc3)c(SCC(N)=O)o2)cc1 [ureainh-110, 2-(2-p-tolyl-4-tosyloxazol-5-ylthio)acetamide]",1000 nM
10,"Cc1ccc(-c2nc(S(=O)(=O)c3ccc(Cl)cc3)c(SCC(N)=O)o2)cc1 [ureainh-111, 2-(4-(4-chlorophenylsulfonyl)-2-p-tolyloxazol-5-ylthio)acetamide]",1000 nM
11,"Cc1ccc(-c2nc(S(=O)(=O)c3ccccc3)c(SCC(N)=O)o2)cc1 [ureainh-112, 2-(4-(phenylsulfonyl)-2-p-tolyloxazol-5-ylthio)acetamide]",15000 nM
12,"NC(=O)CSc1oc(-c2cccs2)nc1S(=O)(=O)c1ccc(Cl)cc1 [ureainh-113, 2-(4-(4-chlorophenylsulfonyl)-2-(thiophen-2-yl)oxazol-5-ylthio)acetamide]",20 nM
13,"Cc1ccc(S(=O)(=O)c2nc(-c3cccs3)oc2SCC(N)=O)cc1 [ureainh-114, 2-(2-(thiophen-2-yl)-4-tosyloxazol-5-ylthio)acetamide]",500 nM

# System: RBC urea transport
# Test: not given
# Details: 23° C.; cited from earlier work
row,SMILES,apparent affinity
1,CNC(N)=O [N-methylurea],approximately 100 mM
2,NC(N)=O [urea],approximately 200 mM
